Like-named read-outs stand apart in the source and are kept apart here. Bounds are passed on as bounds.

In US10745377B2, “Piperidine or piperazine linked imidazole and triazole derivatives and methods of use” (MERCK SHARP & DOHME CORP., priority 2013, dated 2020) one finds IC50 data, which are given here for 18 molecules.

Format in all cases: biochemical
One assay deals with T1, CYP3A4 (Homo sapiens, UniProt P08684).
T1 construct: 0.1 mg/mL protein human liver microsomes (BD Gentest); tissue BD Gentest; host or cells: human liver microsomes
Kind of assay: Cocktail assay for CYPs in human liver microsomes: CYP3A4 (midazolam 1′-hydroxylation). Particulars: 2 μM midazolam, 10 min at 37° C., 6 concentrations up to 10 μM.

The target of the next assay is T2, CYP2D6 (Homo sapiens, UniProt P10635).
T2 construct: 0.1 mg/mL protein human liver microsomes (BD Gentest); tissue BD Gentest; host or cells: human liver microsomes
Kind of assay: Cocktail assay for CYPs in human liver microsomes: CYP2D6 (dextromethorphan O-demethylation). Particulars: 5 μM dextromethorphan, 10 min at 37° C., 6 concentrations up to 10 μM.

The next assay concerns the target T3, CYP2C9 (Homo sapiens, UniProt P11712).
T3 construct: 0.1 mg/mL protein human liver microsomes (BD Gentest); tissue BD Gentest; host or cells: human liver microsomes
Kind of assay: Cocktail assay for CYPs in human liver microsomes: CYP2C9 (diclofenac 4′-hydroxylation). Particulars: 5 μM diclofenac, 10 min at 37° C., 6 concentrations up to 10 μM.

The target in another assay is T4, CYP1A2 (Homo sapiens, UniProt P05177).
T4 construct: 0.1 mg/mL protein human liver microsomes (BD Gentest); tissue BD Gentest; host or cells: human liver microsomes
T4 sequence (P05177 1-516): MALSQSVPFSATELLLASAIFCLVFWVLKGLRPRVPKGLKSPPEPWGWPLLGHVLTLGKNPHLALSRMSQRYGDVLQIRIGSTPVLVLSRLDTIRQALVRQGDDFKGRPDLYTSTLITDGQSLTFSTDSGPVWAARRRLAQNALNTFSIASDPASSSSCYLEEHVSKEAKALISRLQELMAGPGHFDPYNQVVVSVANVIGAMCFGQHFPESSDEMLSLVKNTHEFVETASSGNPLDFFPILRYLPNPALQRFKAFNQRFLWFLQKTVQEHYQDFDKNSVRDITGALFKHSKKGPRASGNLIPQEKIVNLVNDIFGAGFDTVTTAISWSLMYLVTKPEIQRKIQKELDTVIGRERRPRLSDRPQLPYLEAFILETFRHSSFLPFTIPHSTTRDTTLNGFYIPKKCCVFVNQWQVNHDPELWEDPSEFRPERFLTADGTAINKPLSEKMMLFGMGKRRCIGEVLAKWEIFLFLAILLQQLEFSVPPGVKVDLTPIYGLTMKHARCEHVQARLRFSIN
Kind of assay: Cocktail assay for CYPs in human liver microsomes: CYP1A2 (phenacetin O-deethylation).

Another assay has as its target T5, CYP2C19 (Homo sapiens, UniProt P33261).
T5 construct: 0.1 mg/mL protein human liver microsomes (BD Gentest); tissue BD Gentest; host or cells: human liver microsomes
Kind of assay: Cocktail assay for CYPs in human liver microsomes: CYP2C19 (mephenytoin 4′-hydroxylation). Particulars: 30 μM mephenytoin, 10 min at 37° C., 6 concentrations up to 10 μM.

The mark [1] stands for this setting: IC50 (nM) CYP3A4, human liver microsomes 0.1 mg/mL.
[2] abbreviates: IC50 (nM) CYP2D6, human liver microsomes 0.1 mg/mL.
[3] abbreviates: IC50 (nM) CYP2C9, human liver microsomes 0.1 mg/mL.
The mark [4] stands for this setting: IC50 (nM) CYP2C19, human liver microsomes 0.1 mg/mL.
Where [5] appears, read: human liver microsomes 0.1 mg/mL, read-out: IC50 (nM) CYP3A4.
Where [6] appears, read: human liver microsomes 0.1 mg/mL, read-out: IC50 (nM) CYP2D6.
[7] abbreviates: human liver microsomes 0.1 mg/mL, read-out: IC50 (nM) CYP2C9.
The mark [8] stands for this setting: human liver microsomes 0.1 mg/mL, 10 μM phenacetin, 10 min at 37° C., 6 concentrations up to 10 μM, read-out: IC50 (nM) CYP1A2.
[9] abbreviates: human liver microsomes 0.1 mg/mL, read-out: IC50 (nM) CYP2C19.

T3 sequence (P11712 whole entry): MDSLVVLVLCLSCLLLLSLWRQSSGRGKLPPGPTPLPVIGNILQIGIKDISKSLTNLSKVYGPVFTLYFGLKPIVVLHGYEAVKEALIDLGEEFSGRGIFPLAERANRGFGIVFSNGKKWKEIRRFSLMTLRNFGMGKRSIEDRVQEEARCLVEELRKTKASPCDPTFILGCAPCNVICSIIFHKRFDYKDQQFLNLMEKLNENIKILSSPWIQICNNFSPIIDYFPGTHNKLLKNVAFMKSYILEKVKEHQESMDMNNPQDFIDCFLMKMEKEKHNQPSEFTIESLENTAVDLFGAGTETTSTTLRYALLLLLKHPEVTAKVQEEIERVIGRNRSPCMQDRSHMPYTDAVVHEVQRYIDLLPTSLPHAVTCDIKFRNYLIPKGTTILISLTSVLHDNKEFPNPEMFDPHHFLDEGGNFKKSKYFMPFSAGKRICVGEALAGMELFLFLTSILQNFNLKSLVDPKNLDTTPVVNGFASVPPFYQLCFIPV
T5 sequence (P33261 whole entry): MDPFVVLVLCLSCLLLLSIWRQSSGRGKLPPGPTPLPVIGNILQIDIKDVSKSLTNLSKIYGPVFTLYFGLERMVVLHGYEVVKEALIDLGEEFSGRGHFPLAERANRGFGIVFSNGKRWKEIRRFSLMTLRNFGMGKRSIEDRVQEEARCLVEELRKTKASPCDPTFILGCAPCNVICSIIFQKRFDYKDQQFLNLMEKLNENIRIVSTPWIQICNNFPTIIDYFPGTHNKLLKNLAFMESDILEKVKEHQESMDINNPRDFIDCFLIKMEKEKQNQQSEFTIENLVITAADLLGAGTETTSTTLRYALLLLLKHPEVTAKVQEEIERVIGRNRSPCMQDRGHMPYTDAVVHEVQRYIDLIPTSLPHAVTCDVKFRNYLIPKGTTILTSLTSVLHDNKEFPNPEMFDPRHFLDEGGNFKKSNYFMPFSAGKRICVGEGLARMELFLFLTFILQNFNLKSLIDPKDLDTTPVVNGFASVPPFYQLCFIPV
T1 sequence (P08684 whole entry): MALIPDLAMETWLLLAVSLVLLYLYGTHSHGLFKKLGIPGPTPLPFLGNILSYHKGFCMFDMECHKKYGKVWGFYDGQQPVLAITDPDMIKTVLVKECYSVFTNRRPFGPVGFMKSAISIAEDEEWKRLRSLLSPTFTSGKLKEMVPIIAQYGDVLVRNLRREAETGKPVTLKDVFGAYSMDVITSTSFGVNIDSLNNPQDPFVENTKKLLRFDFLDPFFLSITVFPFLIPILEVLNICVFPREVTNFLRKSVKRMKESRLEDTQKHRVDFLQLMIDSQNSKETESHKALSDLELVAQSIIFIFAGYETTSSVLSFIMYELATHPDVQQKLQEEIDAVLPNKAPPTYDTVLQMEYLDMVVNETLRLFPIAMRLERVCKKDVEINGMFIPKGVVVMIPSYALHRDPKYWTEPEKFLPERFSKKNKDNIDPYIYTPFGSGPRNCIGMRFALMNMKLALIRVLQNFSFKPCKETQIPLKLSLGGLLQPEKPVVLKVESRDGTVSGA
T2 sequence (P10635 whole entry): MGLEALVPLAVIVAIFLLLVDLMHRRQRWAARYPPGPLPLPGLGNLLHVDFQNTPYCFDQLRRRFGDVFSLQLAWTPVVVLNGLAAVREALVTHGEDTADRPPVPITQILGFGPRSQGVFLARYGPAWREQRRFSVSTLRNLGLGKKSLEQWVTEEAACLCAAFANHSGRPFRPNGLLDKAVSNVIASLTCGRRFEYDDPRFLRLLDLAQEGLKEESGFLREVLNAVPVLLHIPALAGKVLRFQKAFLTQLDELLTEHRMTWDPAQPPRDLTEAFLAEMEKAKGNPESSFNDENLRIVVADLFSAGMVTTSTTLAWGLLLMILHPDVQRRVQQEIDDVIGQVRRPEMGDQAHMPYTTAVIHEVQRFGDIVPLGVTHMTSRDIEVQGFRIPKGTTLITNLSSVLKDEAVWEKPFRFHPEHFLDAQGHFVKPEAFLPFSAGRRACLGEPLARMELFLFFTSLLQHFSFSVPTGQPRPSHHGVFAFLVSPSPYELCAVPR
Procedure for CYP2C19: (§1) Determination of IC50 in a Cocktail Assay for CYPs 1A2, 2C9, 2C19, 2D6 and 3A4
(§2) This assay was performed in a standard 96-well plate design. […] The incubation substrate mix contains 10 μM phenacetin (1A2), 5 μM diclofenac (2C9), 30 μM mephenytoin (2C19), 5 μM dextromethorphan (2D6) and 2 μM midazolam (3A4), 0.1 mg/mL protein human liver microsomes (BD Gentest), 1 mM NAPDH, 3.3 mM MgCl2 and 100 mM potassium phosphate buffer (pH 7.4). The production of the metabolite of each probe substrate was determined after incubation for 10 min at 37° C. Quantitation of the metabolite peak area ratio against an internal standard (tolbutamide) was determined by LC/MS/MS analysis following acetonitrile treatment of the incubations.
(§3) Samples were analyzed in the MRM mode with a SCIEX API-4000 mass spectrometer (Applied Biosystems, Foster City, Calif.), with a Shimadzu LC-20 AD pump (Shimadzu corporation, Kyoto, JP) and a CTC PAL autosampler (Agilent Technologies, Switzerland). A Phenomenex, Luna, 5 μm, 100 A, 2.00×30 mm HPLC column was used for the separation. The mobile phases were: (A) 0.1% formic acid in water and (B) 0.1% formic acid in acetonitrile. The binary gradient was as follows.
(§4) The mass spectrum parameters were as follows:
(§5) The LC/MS/MS parameters for the analytes were as follows.
(§6) The peak area ratio of the analyte to the internal standard was used to quantify the metabolite. The values of peak area ratios in the presence of test compound were compared to those of maximum or minimum controls and were expressed as % inhibition by interpolating between the maximum and minimum peak area ratios. Incubations with no inhibitor were defined as the maxima.
(§7) The following equation was used to calculate the % inhibition: [1−[(X−Low control)/(High control−Low control)]]*100
(§8) For the IC50 calculation, SigmaPlot was used to plot the mean % inhibition versus the test compound concentrations and for non-linear regression analysis of the data. Depending on the range of data points defining the inhibition curve, the data may have been fit to the 4-parameter logistic equation.
Procedure for CYP2C9: as §1, §2, §3, §4, §5, §6, §7, §8
Procedure for CYP3A4: as §1, §2, §3, §4, §5, §6, §7, §8

`N#Cc1ccc(C2(n3cncc3CN3CCC(C#N)(c4ccc(F)cc4)CC3)CC2)cc1` [Compound 12, 1-((1-(1-(4-cyanophenyl)cyclopropyl)-1H-imidazol-5-yl)methyl)-4-(4-fluorophenyl)piperidine-4-carbonitrile]: the IC50 is 50 nM against CYP3A4 (setting [1]); 6360 nM at CYP2D6 (setting [2]); 5320 nM against CYP2C9 (setting [3]); 1470 nM on CYP1A2; 3980 nM on CYP2C19 (setting [4]).
Take `C[C@H](c1ccc(F)cc1)n1cncc1CN1CCC(C#N)(c2ccccn2)CC1` [Compound 13, (R)-1-((1-(1-(4-fluorophenyl)ethyl)-1H-imidazol-5-yl)methyl)-4-(pyridin-2-yl)piperidine-4-carbonitrile]: the half-inhibitory concentration (IC50) on CYP3A4 (setting [5]) is 10 nM; on CYP2D6 (setting [6]) it was over 10000 nM; at CYP2C9 (setting [7]) it was 4670 nM; at CYP1A2 (setting [8]) it was over 10000 nM; on CYP2C19 (setting [9]) it was 6400 nM.
Take `C[C@H](c1ccc(F)cc1)n1cncc1CN1CCC(C#N)(c2ccccc2)CC1` [Compound 14, (R)-1-((1-(1-(4-fluorophenyl)ethyl)-1H-imidazol-5-yl)methyl)-4-phenylpiperidine-4-carbonitrile]: the IC50 at CYP3A4 (setting [1]) was 17 nM; against CYP2D6 (setting [2]) it was 3700 nM; at CYP2C9 (setting [3]) it was 2200 nM; at CYP1A2, 5520 nM; at CYP2C19 (setting [4]), 2600 nM.
The matching figures for `COC(=O)C1(c2ccccc2)CCN(Cc2cncn2[C@H](C)c2ccc(F)cc2)CC1` [Compound 15, (R)-methyl 1-((1-(1-(4-fluorophenyl)ethyl)-1H-imidazol-5-yl)methyl)-4-phenylpiperidine-4-carboxylate]: 16 nM, 2080 nM, 1390 nM, 2420 nM and 1250 nM.
`CC(c1ccccc1-c1ccc(F)cc1)n1cncc1CN1CCC(F)(F)C1` (stereo not drawn) [Compound 16, 5-((3,3-difluoropyrrolidin-1-yl)methyl)-1-(1-(4′-fluoro-[1,1′-biphenyl]-2-yl)ethyl)-1H-imidazole]: the IC50 on CYP3A4 (setting [5]) was 18 nM; on CYP2D6 (setting [6]) it was 1930 nM; on CYP2C9 (setting [7]) it was 7470 nM; at CYP1A2 (setting [8]) it was over 10000 nM; at CYP2C19 (setting [9]) it was 4270 nM.
As to `CC(c1ccccc1-c1ccc(F)cc1)n1cncc1CN1CCC(O)C1` (stereo not drawn) [Compound 17, 1-((1-(1-(4′-fluoro-[1,1′-biphenyl]-2-yl)ethyl)-1H-imidazol-5-yl)methyl) pyrrolidin-3-ol], the IC50 at CYP3A4 (setting [5]) is 29 nM; at CYP2D6 (setting [6]), 4040 nM; at CYP2C9 (setting [7]) it was over 10000 nM; at CYP1A2 (setting [8]), over 10000 nM; at CYP2C19 (setting [9]) it was over 10000 nM.
For `CC(c1ccccc1-c1ccc(F)cc1)n1cncc1CN1CCCNC(=O)C1` (stereo not drawn) [Compound 18, 4-((1-(1-(4′-fluoro-[1,1′-biphenyl]-2-yl)ethyl)-1H-imidazol-5-yl)methyl)-1,4-diazepan-2-one], the IC50 was 29 nM on CYP3A4 (setting [5]); over 10000 nM at CYP2D6 (setting [6]); over 10000 nM on CYP2C9 (setting [7]); over 10000 nM at CYP1A2 (setting [8]); 4790 nM at CYP2C19 (setting [9]).
For the molecule `C[C@H](c1ccc(C#N)cc1)n1cncc1CN1CCC2(CC1)C(=O)NCN2c1ccccc1` [Compound 19, (R)-4-(1-(5-((4-oxo-1-phenyl-1,3,8-triazaspiro[4.5]decan-8-yl)methyl)-1H-imidazol-1-yl)ethyl) benzonitrile], the IC50 at CYP3A4 (setting [5]) is 50 nM; at CYP2D6 (setting [6]) it was 9970 nM; at CYP2C9 (setting [7]), 1660 nM; at CYP1A2 (setting [8]), over 10000 nM; at CYP2C19 (setting [9]), 2420 nM.
The matching figures for `CC(c1ccccc1-c1ccc(F)cc1)n1cncc1CN1CCS(=O)(=O)CC1` (stereo not drawn) [Compound 20, 4-((1-(1-(4′-fluoro-[1,1′-biphenyl]-2-yl)ethyl)-1H-imidazol-5-yl)methyl) thiomorpholin 1,1-dioxide]: 35 nM, over 10000 nM, over 10000 nM, over 10000 nM and 9910 nM.
The matching figures for `C[C@H](c1ccc(C#N)cc1)n1cncc1CN1CCC(c2nc3ccccc3o2)CC1` [Compound 21, (R)-4-(1-(5-((4-(benzo[d]oxazol-2-yl)piperidin-1-yl)methyl)-1H-imidazol-1-yl)ethyl) benzonitrile]: 35 nM, 7520 nM, 4080 nM, over 10000 nM and 8700 nM.
The matching figures for `C[C@H](c1ccc(C#N)cc1)n1cncc1CN1CCC(c2nc3ccccc3s2)CC1` [Compound 22, (R)-4-(1-(5-((4-(benzo[d]thiazol-2-yl)piperidin-1-yl)methyl)-1H-imidazol-1-yl)ethyl) benzonitrile]: 26 nM, 3210 nM, 1760 nM, over 10000 nM and 4690 nM.
For the molecule `C[C@H](c1ccc(F)cc1)n1cncc1CN1CCN(c2nc3ccccc3o2)CC1` [Compound 23, (R)-2-(4-((1-(1-(4-fluorophenyl)ethyl)-1H-imidazol-5-yl)methyl)piperazin-1-yl)benzo[d]oxazole], the IC50 was 7 nM on CYP3A4 (setting [5]); 2920 nM at CYP2D6 (setting [6]); 4370 nM on CYP2C9 (setting [7]); over 10000 nM at CYP1A2 (setting [8]); 3160 nM at CYP2C19 (setting [9]).
The matching figures for `C[C@H](c1ccc(C#N)cc1)n1cncc1CN1CCN(c2nc3ccccc3o2)CC1` [Compound 24, (R)-4-(1-(5-((4-(benzo[d]oxazol-2-yl)piperazin-1-yl)methyl)-1H-imidazol-1-yl)ethyl) benzonitrile]: 11 nM, 3080 nM, 3430 nM, over 10000 nM and 2260 nM.
The matching figures for `N#Cc1ccc(C2(n3cncc3CN3CCN(c4nc5ccccc5o4)CC3)CC2)cc1` [Compound 25, 4-(1-(5-((4-(benzo[d]oxazol-2-yl)piperazin-1-yl)methyl)-1H-imidazol-1-yl)cyclopropyl) benzonitrile]: 28 nM, 2910 nM, 9590 nM, over 10000 nM and over 10000 nM.
With `CC(C)OCCn1cncc1CN1CCN(c2nc3ccccc3o2)CC1` [Compound 26, 2-(4-((1-(2-isopropoxyethyl)-1H-imidazol-5-yl)methyl)piperazin-1-yl)benzo[d]oxazole], the IC50 on CYP3A4 (setting [5]) is 21 nM; on CYP2D6 (setting [6]), 1040 nM; at CYP2C9 (setting [7]), over 10000 nM; at CYP1A2 (setting [8]), over 10000 nM; on CYP2C19 (setting [9]), over 10000 nM.
In the case of `CC(C)C(C)n1cncc1CN1CCN(c2nc3ccccc3o2)CC1` (stereo not drawn) [Compound 27, 2-(4-((1-(3-methylbutan-2-yl)-1H-imidazol-5-yl)methyl)piperazin-1-yl)benzo[d]oxazole], the IC50 was 9 nM at CYP3A4 (setting [5]); 1760 nM at CYP2D6 (setting [6]); over 10000 nM on CYP2C9 (setting [7]); over 10000 nM at CYP1A2 (setting [8]); over 10000 nM at CYP2C19 (setting [9]).
For `C[C@H](c1ccc(C#N)cc1)n1cncc1CN1CCN(c2nc3cccc(F)c3o2)CC1` [Compound 28, (R)-4-(1-(5-((4-(7-fluorobenzo[d]oxazol-2-yl)piperazin-1-yl)methyl)-1H-imidazol-1-yl)ethyl)benzonitrile], the IC50 was 10 nM on CYP3A4 (setting [5]); 1110 nM at CYP2D6 (setting [6]); 3870 nM on CYP2C9 (setting [7]); over 10000 nM on CYP1A2 (setting [8]); 3570 nM at CYP2C19 (setting [9]).
The matching figures for `Cc1cccc2nc(N3CCN(Cc4cncn4[C@H](C)c4ccc(C#N)cc4)CC3)oc12` [Compound 29, (R)-4-(1-(5-((4-(7-methylbenzo[d]oxazol-2-yl)piperazin-1-yl)methyl)-1H-imidazol-1-yl)ethyl)benzonitrile]: 20 nM, 2770 nM, 2490 nM, over 10000 nM and 4970 nM.
